US20240368164A1, “PURINE NUCLEOSIDES, THEIR INTERMEDIATES, AND METHODS OF PREPARATION THEREOF” (Astrocyle Pharmaceuticals, Inc., priority 2021, published 2024)

How the values were obtained:
Human A3R = molecular target: T1, Human A3R (Homo sapiens, UniProt P0DMS8); assay: Radioligand binding at human A3 adenosine receptor ([125I]I-AB-MECA, CHO cell membranes); conditions: n = 1; read-out: Affinity (nM) at Human A3R
T1 construct: expressed in transfected cells
T1 sequence (P0DMS8 1-318): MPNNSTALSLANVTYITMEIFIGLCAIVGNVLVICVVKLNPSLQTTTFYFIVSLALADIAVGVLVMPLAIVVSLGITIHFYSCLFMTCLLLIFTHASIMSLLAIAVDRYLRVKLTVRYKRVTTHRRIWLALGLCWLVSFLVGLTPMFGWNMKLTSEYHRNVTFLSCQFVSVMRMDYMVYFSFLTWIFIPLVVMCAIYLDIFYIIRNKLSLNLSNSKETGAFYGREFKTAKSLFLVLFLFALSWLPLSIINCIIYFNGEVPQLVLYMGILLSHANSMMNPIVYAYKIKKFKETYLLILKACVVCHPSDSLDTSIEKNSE
Experimental: [3H]R—N^6-Phenylisopropyladenosine ([3H]R-PIA, 63 Ci/mmol), [^3H](2-[p-(2-carboxyethyl)phenyl-ethylamino]-5′-N-ethylcarboxamido-adenosine) ([^3H]CGS21680, 40.5 Ci/mmol) and [^125I]N^6-(4-amino-3-iodobenzyl)adenosine-5′-N-methyluronamide ([^125I]I-AB-MECA, 2200 Ci/mmol) were purchased from Perkin-Elmer Life and Analytical Science (Boston, MA). Test compounds were prepared as 5 mM stock solutions in DMSO and stored frozen.
Cell Culture and Membrane Preparation—CHO cells stably expressing the recombinant hA1 and hA3ARs and HEK293 cells stably expressing the hA2AAR were cultured in Dulbecco's modified Eagle medium (DMEM) and F12 (1:1) supplemented with 10% fetal bovine serum, 100 units/mL penicillin, 100 μg/mL streptomycin, and 2 μmol/mL glutamine. In addition, 800 μg/mL geneticin was added to the A2A media, while 500 μg/mL hygromycin was added to the A1 and A3 media. After harvesting, cells were homogenized and suspended in PBS. Cells were then centrifuged at 240 g for 5 min, and the pellet was resuspended in 50 mM Tris-HCl buffer (pH 7.5) containing 10 mM MgCl2. The suspension was homogenized and was then ultra-centrifuged at 14,330 g for 30 min at 4° C. The resultant pellets were resuspended in Tris buffer, incubated with adenosine deaminase (3 units/mL) for 30 min at 37° C. The suspension was homogenized with an electric homogenizer for 10 sec, pipetted into 1 mL vials and then stored at −80° C. until the binding experiments. The protein concentration was measured using the BCA Protein Assay Kit from Pierce Biotechnology, Inc. (Rockford, IL).
Binding assays: Into each tube in the binding assay was added 50 μL of increasing concentrations of the test ligand in Tris-HCl buffer (50 mM, pH 7.5) containing 10 mM MgCl2, 50 μL of the appropriate agonist radioligand, and finally 100 μL of membrane suspension. For the A1AR (22 μg of protein/tube) the radioligand used was [^3H]R-PIA (final concentration of 3.5 nM). For the A2AAR (20 μg/tube) the radioligand used was [^3H]CGS21680 (10 nM). For the A3AR ([…]) the radioligand used was [^125I]I-AB-MECA (0.34 nM). Nonspecific binding was determined using a final concentration of 10 μM NECA diluted with the buffer. The mixtures were incubated at 25° C. for 60 min in a shaking water bath. Binding reactions were terminated by filtration through Brandel GF/B filters under a reduced pressure using a M-24 cell harvester (Brandel, Gaithersburg, MD). Filters were washed three times with 3 mL of 50 mM ice-cold Tris-HCl buffer (pH 7.5). Filters for A1 and A2AAR binding were placed in scintillation vials containing 5 mL of Hydrofluor scintillation buffer and counted using a Perkin Elmer Liquid Scintillation Analyzer (Tri-Carb 2810TR). Filters for A3AR binding were counted using a Packard Cobra II T-counter. The Ki values were determined using GraphPad Prism for all assays.
A3R binding of selected compounds. Using methods described herein, the affinity of selected compounds at the A3 receptor was measured.

[1] = Nonspecific brain tissue binding (free fraction); format: in vitro ADME, mouse
Description: Example 3 of U.S. Pat. No. 9,789,131, which is incorporated herein by reference, describes assays for determining the plasma and brain free fraction of certain compounds such as I-1. Compounds described herein may be evaluated using such assays or similar variants thereof.

[2] = test system: traumatic brain injury (TBI) in mice; assay: Mouse traumatic brain injury (TBI) model; format: in vivo
Experimental: Animals and traumatic brain injury (TBI): TBI is performed with a controlled closed skull injury model as described in Talley-Watts et al. 2012 (J. Neurotrauma 30, 55-66). Following the method described therein, a pneumatic impact device is used to generate a moderate TBI leaving the skull and dura matter intact. To achieve this, C57BL/6 mice are anesthetized with isoflurane (3% induction, 1% maintenance) in 100% oxygen. A body temperature of 37° C. is maintained using a temperature-controlled heated surgical table. A small midline incision is made on the scalp using aseptic surgical techniques. A 5 mm stainless steel disc is positioned on the skull and fixed using superglue on the right parietal bone between bregma and lamda over the somatosensory cortex. The mouse is then positioned on a stage directly under the pneumatic impact tip. […] Mice are placed in a Thermo-Intensive Care Unit (Braintree Scientific model FV-1; 37° C.; 27% O2) and monitored until fully awake and moving freely. […]
Western Blot Analysis for GFAP: At selected survival times, mice are anesthetized under isoflurane and sacrificed. […] The homogenate is transferred to a 2 mL tube and centrifuged at 1000 g for 10 minutes at 4° C. and the supernatant is collected and analyzed. Protein concentration is determined by the BCA assay using a 1:50 dilution. […]

CSc1nc(N)c2ncn([C@H]3[C@H](O)[C@H](O)[C@]4(CO)C[C@H]34)c2n1 [Compound I-1, (1R,2R,3S,4R,5S)-4-(6-Amino-2-(methylthio)-9H-purin-9-yl)-1-(hydroxymethyl)bicyclo[3.1.0]hexane-2,3-diol]
Ki (Human A3R): 1490 nM
free (unbound) fraction in brain ([1]; brain tissue): 0.13
fraction available to interact with the A3 receptor, relative to Cl-IB-IMECA ([1]; mouse models, from unbound fractions): at least 1000 fold
efficacy in mouse TBI model [2]: significant efficacy
